Measured values as given in ChEMBL document CHEMBL1629647, “Preclinical evaluation of GS-9160, a novel inhibitor of human immunodeficiency virus type 1 integrase” (Antimicrob Agents Chemother, 2009).

Tests used:
[1] = Cytotoxicity against human SupT1 cells infected with HIV1 3B; assay type: cell-based, SUP-T1; conditions: SupT1 cells infected with HIV-1 3B
[2] = tested on: Human immunodeficiency virus 1; assay: Antiviral activity against HIV1 3B infected in human MT-2 cells by two fold dilution method in presence of 10% FBS; assay type: functional, organism-based; conditions: Human immunodeficiency virus 1, 3B, MT2
[3] = tested on: Human immunodeficiency virus 1; assay: Selectivity ratio of EC50 for antiviral activity against EFV-resistant HIV1 selected after 3 passages to EC50 for antiviral activity against wild-type HIV1 3B; assay type: functional
[4] = tested on: Human immunodeficiency virus 1; assay: Selectivity ratio of EC50 for antiviral activity against 3TC-resistant HIV1 selected after 4 passages to EC50 for antiviral activity against wild-type HIV1 3B; assay type: functional
[5] = tested on: Human immunodeficiency virus 1; assay: Selectivity ratio of EC50 for antiviral activity against GS-9160-resistant HIV1 selected after 9 passages to EC50 for antiviral activity against wild-type HIV1 3B; assay type: functional
[6] = tested on: Human immunodeficiency virus 1; assay: Selectivity ratio of EC50 for antiviral activity against APV-resistant HIV1 selected after 2 passages to EC50 for antiviral activity against wild-type HIV1 3B; assay type: functional
[7] = tested on: Human immunodeficiency virus 1; assay: Selectivity ratio of EC50 for antiviral activity against GS-9160-resistant HIV1 selected after 6 passages to EC50 for antiviral activity against wild-type HIV1 3B; assay type: functional
[8] = tested on: Human immunodeficiency virus 1; assay: Selectivity ratio of EC50 for antiviral activity against 3TC-resistant HIV1 selected after 8 passages to EC50 for antiviral activity against wild-type HIV1 3B; assay type: functional
[9] = tested on: Human immunodeficiency virus 1; assay: Selectivity ratio of EC50 for antiviral activity against APV-resistant HIV1 selected after 4 passages to EC50 for antiviral activity against wild-type HIV1 3B; assay type: functional
[10] = tested on: Human immunodeficiency virus 1; assay: Selectivity ratio of EC50 for antiviral activity against GS-9160-resistant HIV1 selected after 8 passages to EC50 for antiviral activity against wild-type HIV1 3B; assay type: functional
[11] = tested on: Human immunodeficiency virus 1; assay: Selectivity ratio of EC50 for antiviral activity against EFV-resistant HIV1 selected after 7 passages to EC50 for antiviral activity against wild-type HIV1 3B; assay type: functional
[12] = tested on: Human immunodeficiency virus 1; assay: Selectivity ratio of EC50 for antiviral activity against GS-9160-resistant HIV1 selected after 5 passages to EC50 for antiviral activity against wild-type HIV1 3B; assay type: functional
[13] = tested on: Human immunodeficiency virus 1; assay: Antiviral activity against HIV1 infected in SupT1 cells assessed as accumulation of late RT products after 12 hrs; assay type: functional, organism-based; conditions: Human immunodeficiency virus 1, SUP-T1, 12 h
[14] = tested on: Human immunodeficiency virus 1; assay: Antiviral activity against HIV1 infected in SupT1 cells assessed as accumulation of integrated junction products after 48 hrs by Alu-PCR assay; assay type: functional, organism-based; conditions: Human immunodeficiency virus 1, SUP-T1, 48 h
[15] = tested on: Human immunodeficiency virus 1; assay: Selectivity ratio of EC50 for antiviral activity against HIV1 harboring G140S and Q148H mutation in catalytic core domain of integrase to EC50 for antiviral activity against wild-type HIV1 3B; assay type: functional
[16] = tested on: Human immunodeficiency virus 1; assay: Selectivity ratio of EC50 for antiviral activity against HIV1 harboring Q148K mutation in catalytic core domain of integrase to EC50 for antiviral activity against wild-type HIV1 3B; assay type: functional
[17] = tested on: Human immunodeficiency virus 1; assay: Selectivity ratio of EC50 for antiviral activity against HIV1 harboring E138K and Q148K mutation in catalytic core domain of integrase to EC50 for antiviral activity against wild-type HIV1 3B; assay type: functional
[18] = tested on: Human immunodeficiency virus 1; assay: Selectivity ratio of EC50 for antiviral activity against NRTI-resistant HIV1 harboring RTM184V mutant gene to EC50 for antiviral activity against wild-type HIV1 3B; assay type: functional
[19] = tested on: Human immunodeficiency virus 1; assay: Selectivity ratio of EC50 for antiviral activity against HIV1 harboring L74M mutation in catalytic core domain of integrase to EC50 for antiviral activity against wild-type HIV1 3B; assay type: functional
[20] = tested on: Human immunodeficiency virus 1; assay: Selectivity ratio of EC50 for antiviral activity against NRTI-resistant HIV1 harboring RT-6TAMs mutant gene to EC50 for antiviral activity against wild-type HIV1 3B; assay type: functional
[21] = tested on: Human immunodeficiency virus 1; assay: Selectivity ratio of EC50 for antiviral activity against HIV1 harboring E92V, G140S and V151A mutation in catalytic core domain of integrase to EC50 for antiviral activity against wild-type HIV1 3B; assay type: functional
[22] = tested on: Human immunodeficiency virus 1; assay: Selectivity ratio of EC50 for antiviral activity against HIV1 harboring N155H mutation in catalytic core domain of integrase to EC50 for antiviral activity against wild-type HIV1 3B; assay type: functional
[23] = tested on: Human immunodeficiency virus 1; assay: Selectivity ratio of EC50 for antiviral activity against NRTI-resistant HIV1 harboring RTK65R mutant gene to EC50 for antiviral activity against wild-type HIV1 3B; assay type: functional
[24] = tested on: Human immunodeficiency virus 1; assay: Selectivity ratio of EC50 for antiviral activity against HIV1 harboring E92V and V151A mutation in catalytic core domain of integrase to EC50 for antiviral activity against wild-type HIV1 3B; assay type: functional
[25] = tested on: Human immunodeficiency virus 1; assay: Selectivity ratio of EC50 for antiviral activity against HIV1 harboring E138K mutation in catalytic core domain of integrase to EC50 for antiviral activity against wild-type HIV1 3B; assay type: functional
[26] = tested on: Human immunodeficiency virus 1; assay: Selectivity ratio of EC50 for antiviral activity against HIV1 harboring G140S mutation in catalytic core domain of integrase to EC50 for antiviral activity against wild-type HIV1 3B; assay type: functional
[27] = tested on: Human immunodeficiency virus 1; assay: Selectivity ratio of EC50 for antiviral activity against PI-resistant HIV1 harboring […], L90M mutant gene to EC50 for antiviral activity against wild-type HIV1 3B; assay type: functional
[28] = tested on: Human immunodeficiency virus 1; assay: Selectivity ratio of EC50 for antiviral activity against HIV1 harboring T66I mutation in catalytic core domain of integrase to EC50 for antiviral activity against wild-type HIV1 3B; assay type: functional
[29] = tested on: Human immunodeficiency virus 1; assay: Selectivity ratio of EC50 for antiviral activity against NNRTI-resistant HIV1 harboring RTK103N mutant gene to EC50 for antiviral activity against wild-type HIV1 3B; assay type: functional
[30] = tested on: Human immunodeficiency virus 1; assay: Selectivity ratio of EC50 for antiviral activity against HIV1 harboring N155S mutation in catalytic core domain of integrase to EC50 for antiviral activity against wild-type HIV1 3B; assay type: functional
[31] = tested on: Human immunodeficiency virus 1; assay: Selectivity ratio of EC50 for antiviral activity against PI-resistant HIV1 harboring […], V82A and L90M mutant gene to EC50 for antiviral activity against wild-type HIV1 3B; assay type: functional
[32] = tested on: Human immunodeficiency virus 1; assay: Selectivity ratio of EC50 for antiviral activity against HIV1 harboring E92V mutation in catalytic core domain of integrase to EC50 for antiviral activity against wild-type HIV1 3B; assay type: functional
[33] = tested on: Human immunodeficiency virus 1; assay: Selectivity ratio of EC50 for antiviral activity against HIV1 harboring E92Q mutation in catalytic core domain of integrase to EC50 for antiviral activity against wild-type HIV1 3B; assay type: functional
[34] = tested on: Human immunodeficiency virus 1; assay: Selectivity ratio of EC50 for antiviral activity against HIV1 harboring L74M and E92V mutation in catalytic core domain of integrase to EC50 for antiviral activity against wild-type HIV1 3B; assay type: functional
[35] = tested on: Human immunodeficiency virus 1; assay: Selectivity ratio of EC50 for antiviral activity against HIV1 harboring V151A mutation in catalytic core domain of integrase to EC50 for antiviral activity against wild-type HIV1 3B; assay type: functional
[36] = tested on: Human immunodeficiency virus 1; assay: Selectivity ratio of EC50 for antiviral activity against NNRTI-resistant HIV1 harboring RTY181C mutant gene to EC50 for antiviral activity against wild-type HIV1 3B; assay type: functional
[37] = tested on: Human immunodeficiency virus 1; assay: Antiviral activity against HIV1 3B infected in human MT-4 cells by two fold dilution method in presence of 10% FBS; assay type: functional, organism-based; conditions: Human immunodeficiency virus 1, 3B, MT4
[38] = tested on: Human immunodeficiency virus 1; assay: Antiviral activity against HIV1 3B infected in human MT-2 cells by two fold dilution method in presence of 10% FBS, HSA and alpha1-AGP; assay type: functional, organism-based; conditions: Human immunodeficiency virus 1, 3B, MT2
[39] = Cytotoxicity against human uninfected MT2 cells by three fold dilution method in presence of 10% FBS
[40] = tested on: Human immunodeficiency virus 1; assay: Antiviral activity against 0.001 MOI HIV1 BAL infected in human T lymphocyte cells by p24 antigen ELISA in presence of 10% FBS; assay type: functional, organism-based; conditions: Human immunodeficiency virus 1, BAL
[41] = tested on: Human immunodeficiency virus 1; assay: Antiviral activity against 0.02 MOI HIV1 3B infected in human MT-2 cells by two fold dilution method in presence of 100% human serum; assay type: functional, organism-based; conditions: Human immunodeficiency virus 1, 3B, MT2
[42] = tested on: Human immunodeficiency virus 1; assay: Antiviral activity against 0.01 MOI HIV1 3B infected in human MT-2 cells by two fold dilution method in presence of 100% human serum; assay type: functional, organism-based; conditions: Human immunodeficiency virus 1, 3B, MT2
[43] = tested on: Human immunodeficiency virus 1; assay: Antiviral activity against 0.001 MOI HIV1 BAL infected in human T lymphocyte cells by p24 antigen ELISA in presence of 10% FBS, HSA and alpha1-AGP; assay type: functional, organism-based; conditions: Human immunodeficiency virus 1, BAL
[44] = Cytotoxicity against human MT4 cells infected with HIV1 3B by three fold dilution method in presence of 10% FBS; assay type: cell-based; conditions: MT4 cells infected with HIV-1 3B
[45] = Cytotoxicity against human T lymphocyte cells uninfected by XTT method in presence of 10% FBS
[46] = tested on: Human immunodeficiency virus 1; assay: Antiviral activity against HIV1 3B infected in SupT1 cells assessed as fold increase in viral 2-LTR circles accumulation after […] postinfection by TaqMan real-time PCR; assay type: functional, SUP-T1
[47] = tested on: Human immunodeficiency virus 1; assay: Antiviral activity against 0.04 MOI HIV1 3B infected in human MT-2 cells by […] dilution method in presence of 100% human serum; conditions: Human immunodeficiency virus 1, 3B, MT2

## O=C1Nc2ccc(Cl)cc2[C@@](C#CC2CC2)(C(F)(F)F)O1 [EFAVIRENZ]
[1]
  CC50: 15500 nM
[2]
  EC50: 6.8 nM

## Nc1ccn([C@@H]2CS[C@H](CO)O2)c(=O)n1 [LAMIVUDINE]
[3]
  Ratio EC50: 2
[4]
  Ratio EC50: >272
[5]
  Ratio EC50: 1.4
[6]
  Ratio EC50: 7
[7]
  Ratio EC50: 4.5
[8]
  Ratio EC50: >272
[9]
  Ratio EC50: 9
[10]
  Ratio EC50: 5.7
[11]
  Ratio EC50: 1
[12]
  Ratio EC50: 1.8

## CC(C)CN(C[C@@H](O)[C@H](Cc1ccccc1)NC(=O)O[C@H]1CCOC1)S(=O)(=O)c1ccc(N)cc1
[3]
  Ratio EC50: 1.2
[4]
  Ratio EC50: 1.6
[1]
  CC50: 96000 nM
[5]
  Ratio EC50: 1.5
[6]
  Ratio EC50: 3.4
[7]
  Ratio EC50: 1.5
[8]
  Ratio EC50: 0.9
[9]
  Ratio EC50: 8.7
[10]
  Ratio EC50: 4
[11]
  Ratio EC50: 1.6
[13]
  EC50: > 1000 nM
[12]
  Ratio EC50: 1
[14]
  EC50: > 1000 nM

## Cc1cccc(C)c1OCC(=O)N[C@@H](Cc1ccccc1)[C@@H](O)C[C@H](Cc1ccccc1)NC(=O)[C@H](C(C)C)N1CCCNC1=O [LOPINAVIR]
[15]
  Ratio EC50: 1
[16]
  Ratio EC50: 1
[17]
  Ratio EC50: 1
[18]
  Ratio EC50: 3
[19]
  Ratio EC50: 1
[20]
  Ratio EC50: 5
[21]
  Ratio EC50: 2
[22]
  Ratio EC50: 2
[2]
  EC50: 4.8 nM
[23]
  Ratio EC50: 3
[24]
  Ratio EC50: 1
[25]
  Ratio EC50: 1
[26]
  Ratio EC50: 1
[27]
  Ratio EC50: 29
[28]
  Ratio EC50: 4
[29]
  Ratio EC50: 1
[30]
  Ratio EC50: 2
[31]
  Ratio EC50: 9
[32]
  Ratio EC50: 1
[33]
  Ratio EC50: 1
[34]
  Ratio EC50: 1
[35]
  Ratio EC50: 1
[36]
  Ratio EC50: 1

## COc1cc2c(cc1Cc1cccc(Cl)c1F)c(=O)c(C(=O)O)cn2[C@@H](CO)C(C)C
[37]
  EC50: 0.17 nM
[1]
  CC50: 5300 nM
[38]
  EC50: 24 nM
[39]
  CC50: 8000 nM
[40]
  EC50: 0.2 nM
[41]
  EC50: 121 nM
[42]
  EC50: 83 nM
[43]
  EC50: 16 nM
[2]
  EC50: 0.6 nM
[44]
  CC50: 4000 nM
[45]
  CC50: 40000 nM
[46]
  fold change (FC): 2.3
[13]
  EC50: > 1000 nM
[47]
  EC50: 207 nM
[14]
  EC50: 0.3 nM
